Experimental findings from patent publication US20060084704A1, “Methods and compositions for enhancing degradation of nuclear receptor transcription factors and uses thereof” (priority 2004, published 2006) are described below.

Entries after “also recorded” stand apart in the source; their conditions may differ.

For assay [1], the system named is testosterone-induced hair growth suppression. Put plainly: Androgen-induced alopecia model, hair re-growth in shaved mice. As to conditions: topical testosterone 1% in the morning, JC9 0.02% in the afternoon, 20 days. In kind it is in vivo, C57BL/6J mice. The procedure: C57BL/6J mice were used in this animal model for hair loss and regrowth (Uno et al. (1990) J. Cutaneous Aging & Cosm. Derm., 1: 193, which is incorporated by reference in its entirety herein). Six-week-old male mice (6 to 7 animals per group) were shaved with an electric clipper, and then treated with a hair-removal cream for 1 to 2 minutes. […] One day after hair removal, a first group of animals each received 100 microliters of a 1% testosterone solution in ethanol, applied topically to the shaved area, once each morning for twenty consecutive days. A second group of animals each received 100 microliters of vehicle (ethanol) alone, applied topically to the shaved area, once each morning for twenty consecutive days. The first group of mice (testosterone-treated) were divided further into a control group and a treatment group. Also beginning one day after hair removal, each mouse in the control group received 100 microliters of a control solution (60% ethanol, 20% propylene glycol, and 20% water) and each mouse in the treatment group received 100 microliters of the test compound, JC9 (0.02% in the same 60% ethanol, 20% propylene glycol, and 20% water solution), applied topically to the shaved area, once each afternoon for twenty consecutive days. Hair re-growth in the shaved areas was observed and photographed at 12, 15, 18, 21, and 24 days after beginning of the topical treatments.

In assay [2] the target is T1, mutant Q49 androgen receptor (Homo sapiens, UniProt P10275, INS80QQQQQQQQQQQQQQQQQQQQQQQQQQ).
T1 construct: GFP; expressed in transfected cells; host or cells: COS-1 (monkey kidney)
T1 sequence (P10275 with tags, fused parts or gaps with the stated changes): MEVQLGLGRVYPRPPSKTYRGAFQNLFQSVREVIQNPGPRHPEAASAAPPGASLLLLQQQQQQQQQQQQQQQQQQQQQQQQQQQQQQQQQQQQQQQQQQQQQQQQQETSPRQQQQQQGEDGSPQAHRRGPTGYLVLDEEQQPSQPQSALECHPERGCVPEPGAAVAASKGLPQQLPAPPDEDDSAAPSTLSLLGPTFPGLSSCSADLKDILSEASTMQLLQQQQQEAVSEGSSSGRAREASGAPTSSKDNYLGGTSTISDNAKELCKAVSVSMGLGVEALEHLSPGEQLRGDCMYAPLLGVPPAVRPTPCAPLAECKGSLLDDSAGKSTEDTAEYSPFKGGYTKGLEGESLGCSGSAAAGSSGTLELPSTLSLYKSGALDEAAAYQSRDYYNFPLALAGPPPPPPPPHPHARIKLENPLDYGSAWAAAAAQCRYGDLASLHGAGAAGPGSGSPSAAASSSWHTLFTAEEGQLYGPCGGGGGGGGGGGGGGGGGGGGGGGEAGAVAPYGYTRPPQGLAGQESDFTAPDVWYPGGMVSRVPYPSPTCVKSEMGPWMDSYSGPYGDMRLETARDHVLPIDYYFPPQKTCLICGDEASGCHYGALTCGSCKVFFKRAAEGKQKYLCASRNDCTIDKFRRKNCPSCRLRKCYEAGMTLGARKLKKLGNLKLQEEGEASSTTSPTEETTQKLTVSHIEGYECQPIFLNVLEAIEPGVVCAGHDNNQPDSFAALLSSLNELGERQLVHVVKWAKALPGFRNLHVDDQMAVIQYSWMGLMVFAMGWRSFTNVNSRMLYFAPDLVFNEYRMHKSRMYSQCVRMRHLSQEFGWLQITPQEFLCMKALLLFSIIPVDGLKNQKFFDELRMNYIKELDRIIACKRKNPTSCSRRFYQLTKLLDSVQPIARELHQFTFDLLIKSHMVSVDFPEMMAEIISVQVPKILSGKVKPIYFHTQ
Put plainly: Mutant androgen receptor inclusions in COS-1 cells transfected with GFPARQ49 (fluorescence microscopy). As to conditions: COS-1 cells transfected with GFPARQ49, JC9 5 micromolar. In kind it is cell-based. The method, then:
Monkey kidney COS-1 cells were plated at a density of 3×10^4 cells per 0.5-milliliter volume onto alcohol-cleaned and sterilized cover slips placed in 35-millimeter suspension culture dishes containing Dulbecco's modified Eagle's (DME) medium containing 10% FBS. The cells were transfected with plasmids containing either the Q19 (plasmid GFPARQ19) or Q49 (plasmid GFPARQ49) mutant androgen receptor and green fluorescent protein (GFP) as a reporter. For each coverslip, 12.3 microliters SuperFect was added to 3.075 micrograms plasmid in 102.5 microliters DME medium (to give a 1:4 ratio of DNA to SuperFect reagent); the mixture was vortexed briefly, and the complex allowed to form over 15 minutes. Each mixture then received 897 microliters CD/DME and was mixed gently. The resulting 1-milliliter volumes were added to the dishes containing the coverslips (final plasmid concentration was 3.02 micrograms per dish). Cells were allowed to incubate with the transfection solution for 5 hours, then the medium was changed to fresh 1.5 milliliters CD/DME medium with either vehicle (DMSO) only added or JC9 (final concentration 5 micromolar). […] The coverslips were air-dried, mounted on slides with a glycerol-based mounting agent, and stored at 4 degrees Celsius if necessary prior to observation with fluorescence microscopy. […]

Assay [3] concerns the target T2, progesterone receptor (Homo sapiens, UniProt P06401).
T2 construct: endogenous in cells; host or cells: LNCaP
T2 sequence (P06401 1-933): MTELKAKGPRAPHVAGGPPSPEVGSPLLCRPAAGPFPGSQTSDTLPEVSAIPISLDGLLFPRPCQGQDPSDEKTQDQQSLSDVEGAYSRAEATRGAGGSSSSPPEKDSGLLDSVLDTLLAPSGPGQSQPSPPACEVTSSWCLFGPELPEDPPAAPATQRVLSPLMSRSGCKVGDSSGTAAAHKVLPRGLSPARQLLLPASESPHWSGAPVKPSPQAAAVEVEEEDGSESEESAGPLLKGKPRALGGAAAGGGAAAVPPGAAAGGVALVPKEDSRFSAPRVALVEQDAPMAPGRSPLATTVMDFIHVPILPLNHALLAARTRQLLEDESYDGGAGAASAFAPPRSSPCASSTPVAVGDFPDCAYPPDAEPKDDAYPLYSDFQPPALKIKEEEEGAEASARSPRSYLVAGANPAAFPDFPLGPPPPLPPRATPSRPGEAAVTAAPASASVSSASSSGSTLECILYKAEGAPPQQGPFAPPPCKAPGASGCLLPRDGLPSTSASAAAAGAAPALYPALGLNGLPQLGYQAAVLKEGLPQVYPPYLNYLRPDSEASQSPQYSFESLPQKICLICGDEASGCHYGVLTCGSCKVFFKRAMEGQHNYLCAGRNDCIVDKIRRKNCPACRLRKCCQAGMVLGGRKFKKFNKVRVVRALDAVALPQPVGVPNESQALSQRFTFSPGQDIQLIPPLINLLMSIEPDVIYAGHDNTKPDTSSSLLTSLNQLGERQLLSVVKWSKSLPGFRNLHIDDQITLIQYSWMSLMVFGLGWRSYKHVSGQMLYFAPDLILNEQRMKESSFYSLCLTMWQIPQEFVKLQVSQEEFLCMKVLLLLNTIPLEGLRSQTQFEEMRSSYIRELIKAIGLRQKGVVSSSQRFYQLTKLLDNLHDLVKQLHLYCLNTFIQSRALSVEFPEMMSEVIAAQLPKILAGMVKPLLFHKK
Put plainly: Western blot of LNCaP cell lysates, progesterone receptor. The assay is classed as cell-based. As to conditions: 1 or 2 micromolar, 24 hours, presence or absence of DHT.

In the case of `COc1ccc(C=CC(=O)C=C(O)C=Cc2ccc(OC)c(OC)c2)cc1OC` [JC9, 5-hydroxy-1,7-bis(3,4-dimethoxyphenyl)-1,4,6-heptatrien-3-one], in assay [1], the “hair re-growth in shaved areas” value is “rapid re-growth of hair in the shaved areas from day 10 to day 20; also recorded: hair growth on day 8 and fully re-growth of hair in the shaved areas after 20 days”. In addition, in assay [2], the “fluorescent inclusions or aggregates of mutant Q49 androgen receptor” value is given as “substantially smaller amounts of fluorescent inclusions”. As for `CCOC(=O)CCC(C(=O)C=Cc1ccc(O)c(OC)c1)C(=O)C=Cc1ccc(O)c(OC)c1` (stereo not drawn) [JC15, 7-(4-hydroxy-3-methoxyphenyl)-4-[3-(4-hydroxy-3-methoxyphenyl)acryloyl]-5-oxo-hept-6-enoic acid ethyl ester], the “cellular concentration of progesterone receptor” value in assay [3] is “decreased”.
